“Also recorded” adds a separate entry of the source.
What was measured:
[1] = test system: radiation-induced dermatitis on backs of rats; experiment: Radiation-induced dermatitis in rat skin model; type: in vivo; conditions: for protective effect against radiation-induced dermatitis (FIG. 8D): topical in carrier vehicle before 5.5 min Cs137 irradiation
Description: To determine efficacy of chemoprotective polyamines in preventing radiation-induced dermatitis, adult rats were topically treated with the compounds before and after radiation treatment. Rats were exposed to medically relevant levels of radiation that could induce clinical radiation dermatitis. Sprague Dawley rats (Harlan Spraque Dawley) at 4-6 weeks-old were anesthetized with sodium pentobarbital at 40 mg/kg body weight (Sigma, St. Louis, Mo.) prior to radiation exposure. A defined area (1.5×2 cm) on the backs of rats was irradiated using a Mark I, Model 30, Cs 137 irradiator (J. L. Sheppard & Associates). Before topical drug treatment or irradiation, the backs of the rats were clipped using an Oster clipper at the closest setting. The rest of the body was protected from radiation exposure using a lead shield (2.5 cm thick). A dose response study was initially performed to reproduce relevant dermatitis that matched the Grade (I-IV) scale used to score the severity of radiation-induced dermatitis in humans. The severity of the dermatitis was scored 12-13 days post-irradiation at the peak of the dermal inflammation. […] Radiation dermatitis of Grade II-III was considered most clinically relevant, so a radiation dose of 8.7 Gy was typically used in the rats. The clipped back region on the rats was treated topically with aminothiol in delivery vehicle four times in the two hours immediately preceding irradiation (at −2 hr, −1 hr, −30 min, and −10 min; irradiation was at 0 min
The polyamines or amino thiols were prepared in a delivery vehicle, consisting of ethanol:propylene glycol:water, ranging from 0:95:5 to 50:30:20 depending upon the solubility characteristics of the topical molecule, and the degree of dermal penetration desired. A vehicle composed of an emulsion formed by sonication of ‘nonionic liposomes’ and isopropyl myristate was also used (Jayaraman, S. et al., J. Pharm. Sci. 85:1082-1084, 1996). In a commonly used protocol, 220 μl of topical drug/vehicle was applied to an area ˜2 cm×3 cm on the back in the 2 hr just prior to irradiation. Rats treated with only the delivery vehicle served as controls. Twelve to thirteen days post-radiation, the rats were evaluated for dermatitis within the irradiated area. In early studies, a modified scoring scale described by Masuda K. et al., Int. J. Radiation Oncol. Biol. Phys: 12, 1645 (1986) was used, and in later studies, including those described here, a simplified scoring system was used in which the percentage of the irradiated, rectangular field covered with scrab material was estimated between 0 and 100% to provide scores on a scale between 0 and 100.
This example relates to the use of a rat skin model to evaluate the efficacy of two amino thiol compounds in preventing radiation-induced dermatitis. To test whether topically-applied aminothiols could prevent the radiodermatitis caused by external beam radiotherapy, the rodent model described in Example 3 was slightly modified. Briefly, the radiodermatitis model involved: • i) shaving the backs of 6-7 week old rats or mice; • ii) applying four topical doses of aminothiol in a delivery vehicle composed of ethanol:propylene glycol (PG):water in the 2 hr prior to irradiation; • iii) irradiating a small, 3 cm^2 (1.5×2 cm) area on the animal's back (through a window in a lead plate) with 8.7 Gy of γ radiation from a Cs^137 source; and • iv) scoring the severity of the dermatitis 12-13 days later, at the peak of the inflammatory skin reaction. Radiodermatitis severity was scored by estimating the percentage of the irradiated field that was covered by scrab material.
Methods: Treatments were applied as described in Example 6.

23SK human skin cells = experiment: Protection of human skin cells against phosphoramide mustard; type: cell-based; conditions: 4 mM preload 30 min, phosphoramide mustard 40 min
Description: An in vitro cell culture assay was developed to determine the ability of chemoprotective polyamines, chemoprotective amino thiols and other molecules to confer radioprotection or chemoprotection to human skin cells. Diploid, human foreskin fibroblasts (23SK cells) were maintained in DMEM supplemented with 20% fetal bovine serum and gentamycin. For toxicity experiments, cells were seeded at a density of 750 cells/100 μl of DMEM+20% FBS+gentamycin into each well of 96 well plates (Corning, Corning, N.Y.). The next day, solutions of protective drug molecules, typically at 4 mM concentration, were prepared in Dulbecco's phosphate-buffered saline (D-PBS); each stock was titrated back to pH 7.0-7.5, if necessary, using sterile HCl or NaOH. Media was aspirated from cell wells, wells were rinsed with D-PBS, and loading solutions were then added to wells. Cells were typically exposed to loading solutions for 30 min. Following this drug loading period, plates were either placed directly into a Shepherd Mark II Cs^137 irradiator for irradiation (38 min), or wells were aspirated and the solution immediately replaced with a solution of D-PBS containing 350 μM phosphoramide mustard (obtained from NCI Chemical Repository) for a 40 min incubation at room temperature. After either treatment, wells were aspirated, rinsed and then given 100 μl of DMEM+20% FBS+gentamycin. Plates were maintained in 5% CO2 within a humidified chamber within a humidified incubator for 4-5 days at 37° C. […] of MTT solution (Promega Corp., Madison, Wis.) was then added to each well, and color development occurred over the next 3 hr at 37° C. Absorbance at 490 nm was then determined using a plate reader, and cell growth in treated wells compared to cell growth in wells loaded with vehicle and not irradiated or exposed to phosphoramide mustard was plotted using GraphPad software.

[2] = test system: primary, human skin fibroblasts; experiment: Cell cycle block in human skin fibroblasts (flow cytometry); type: cell-based; conditions: for cell cycle block (phase): log-phase human fibroblast cultures; for reversibility of cell cycle block: upon washout or removal of the drug
Description: (§1) Methods (Cell cycle and p21 western): The cell culture experiments were done using primary, human skin fibroblasts, one strain of which (BJ cells) was obtained from ATCC (American Type Culture Collection). […] For flow cytometry and p21 experiments, cells were plated at 0.5×10^6 cells/150 mm plate, and 24 hr later, drug molecules (4100 μM PrC-210, 600 μM cysteamine, 205 μM cysteamine analog, 0.4 μg/ml colcemid) were added to medium. […] (Cancer Research. 61(21):7754-62, 2001). As per the cited reference, cells were fixed, treated with RNAse, and stained with propidium iodide for flow cytometry, or cells were extracted, proteins electrophoresed, and probed with anti-p21 antibody (#SXM-30) for western blot analysis.

cell cycle = conditions: Jeitner and Renton 1996; Snyder and Grdina 2000; Kramer et al. 1997; cited from earlier work
cells in tissue culture = conditions: Purdie 1979; cited from earlier work
[3] = test system: Phase I/Phase II/Phase III drug metabolizing/exporting gene products in neonate rat skin; experiment: Nucleic acid arrays of topically treated neonate rat skin; type: in vivo; conditions: topical treatment of neonate rat skin for 3-6 days
Excerpt: Two examples of genes whose expression was induced following topical β-naphthaflavone treatment included, glutathione S-transferase (several separate isoforms that conjugate/detoxify drug electrophiles), and MRP (mdr-related protein, drug exporting membrane pump).

p21 in human fibroblasts = experiment: p21 western blot in human skin fibroblasts; type: cell-based; conditions: IC70 concentration of PrC-210 (4100 μM); cysteamine 600 μM; 30 hour exposure
Description: as §1

mouse skin = conditions: cited from earlier work

Row | Compound | protective effect against radiation-induced dermatitis (FIG. 8D) [1] | protective effect on cell growth against phosphoramide mustard (FIG. 8B) (23SK human skin cells) | cell cycle block (phase) [2] | reversibility of cell cycle block [2] | cell cycle arrest reported in literature (cell cycle) | radioprotector activity when added to cells in tissue culture (cells in tissue culture) | number of Phase I/Phase II/Phase III drug metabolizing/exporting gene products activated [3] | effect on radiation dermatitis ([1]; 600-1200 mM applied to backs of rats two hours prior to radiation) | p21 expression (p21 in human fibroblasts) | effect of systemic drug on radiation-induced skin damage (mouse skin; systemic, mice, Lowy et al. 1972) | protective effect when applied topically to mouse skin (mouse skin; topical, Verhey et al. 1983) | effect of topical application on radiation-induced skin damage (mouse skin; topical, mice, Lowy et al. 1972)
1 | NCCCNCCS [WR-1065] | lack of a protective effect | not significantly different than that seen in the vehicle control | cell cycle block in G2; also recorded: G2 cell cycle block that could not be reversed | not reversible | arresting cells in the G2 phase | active as a radioprotector | – | – | – | – | – | –
2 | O=c1cc(-c2ccccc2)oc2ccc3ccccc3c12 [β-naphthaflavone] | – | – | – | – | – | – | at least 40 | – | – | – | – | –
3 | NCCS [cysteamine] | – | conferred a protective effect | cell cycle block in G2; also recorded: G2 cell cycle block that could not be reversed | not reversible | arrest in G2/M | active as a radioprotector | – | eliminate radiation dermatitis | does not induce such expression | – | – | –
4 | NCCCNCCSP(=O)(O)O [amifostine] | lack of a protective effect | not significantly different than that seen in the vehicle control | G2 cell cycle block that could not be reversed | – | arresting cells in the G2 phase | – | – | – | – | effective in reducing radiation-induced skin damage | no protective effect | showed no protective effect

— patent publication US7314959B2, “Amino thiol compounds and compositions for use in conjunction with cancer therapy” (Wisconsin Alumni Research Foundation, priority 2003, dated 2008)
